Experimental data from patent US20180296532A1, “RNA-Focused Small Molecules for Inhibiting RNA Toxicity in Myotonic Dystrophy” (The Scripps Research Institute, priority 2015, published 2018).

Columns and labels:
[1] = tested on: r(CUG)12-MBNL1 complex; assay: TR-FRET assay, disruption of the r(CUG)12-MBNL1 complex; assay type: biochemical
Source text: DM1 is caused by an RNA gain-of-function mechanism in which r(CUG)^exp binds and inactivates proteins involved RNA biogenesis.^(25-29) One protein, muscleblind-like 1 (MBNL1), regulates the alternative splicing of a sub-set of RNAs that are de-regulated in DM1.^(27, 43-45) We discovered that Formula (I) compounds disrupt the r(CUG)12-MBNL1 complex in vitro as determined by a previously described time-resolved fluorescence resonance energy transfer (TR-FRET) assay (FIG. 1A).^(46)
The in vitro activity of library compounds was assessed by disruption of the r(CUG)12-MBNL1 complex using a previously reported TR-FRET assay.^(32, 46) Biotinylated RNA was folded at 60° C. in 1× Folding Buffer (20 mM HEPES, pH 7.5, […], and 10 mM NaCl) and slowly cooled to room temperature. The buffer was then adjusted to 1× Assay Buffer (1× Folding Buffer supplemented with 2 mM MgCl2, 2 mM CaCl2, 5 mM DTT, 0.1% BSA, 0.05% Tween-20) and MBNL1-His6 was added. The final concentrations of RNA and MBNL1-His6 were 80 nM and 62 nM, respectively. After incubation at room temperature for 15 min, 8 μL aliquots were then dispensed into each well of low volume, 384-well plates using a flying reagent dispenser. […] Plates were incubated at room temperature for 1 h, and then TR-FRET was measured using a Molecular Devices SpectraMax M5 plate reader using an excitation wavelength of 345 nm and a 420 nm cutoff. Fluorescence was measured at 545 and 665 nm. Library compounds were screened for potential intrinsic fluorescence under screening conditions. No library compounds were fluorescent at 665 nm and two non-hit compounds have low fluorescence at 545 nm.
To calculate the percent inhibition of complex formation, the ratio of fluorescence intensity at 545 nm and 665 nm in the presence of compound was compared to the ratio in the absence of small molecule (100% r(CUG)12-MBNL1 complex formation) and in the absence of RNA and protein (no complex formation). […]

[2] = tested on: DMPK mRNA; assay: Effect of 2GN8 on DMPK mRNA abundance in DM1 patient derived fibroblasts by qRT-PCR; assay type: cell-based; conditions: patient derived fibroblasts with 500 CUG repeats; bioactive concentrations
Method: Evaluation of the effect of 2GN8 on the abundance of DMPK mRNA was assessed using patient derived fibroblasts with 500 CUG repeats.
The effect of 2GN8 on the abundance of DMPK mRNA was assessed using DM1 patient derived fibroblasts containing 500 CTG repeats (GM03987). Cells were grown as monolayers in 6 well plates in growth medium (1×EMEM (Lonza), 10% FBS, 1× glutagro (Corning), 1×MEM non-essential amino acids (Corning) and 1× antibiotic/antimycotic (Corning)). Once cells were ˜80% confluent, they were treated with growth medium containing the 2GN8 (300, 200 and 100 μM). After 48 h the cells were lysed and the total RNA was harvested using Trizol reagent (Life Technologies). Approximately 100 ng of RNA was used for RT qScript cDNA synthesis kit (Quanta BioSciences). 30% of the RT reaction was used for real time PCR (qPCR) with SYBR green master mix (Life Technologies) performed on a 7900HT Fast Real-Time PCR System (Applied Biosystems). The PCR primers for DMPK mRNA were 5′-CGTGCAAGCGCCCAG (forward) and 5′-[…] (reverse). The PCR primers for 18S ribosomal RNA were 5′-[…] (forward) and 5′-[…] (reverse).

[3] = tested on: HSA^LR mice; assay: Pre-mRNA splicing defects in HSA^LR mouse model of DM1; assay type: in vivo; conditions: 40 mg/kg/day intraperitoneally for 18 days
Source text: A mouse model of DM1 has been reported in which 250 rCUG repeats are expressed using an actin promoter (human skeletal actin long repeat, HSA^LR).^24 The presence of these repeats results in dysregulation of alternative splicing in the muscle-specific chloride ion channel (Clcn1) and the sarcoplasmic/endoplasmic reticulum calcium ATPase 1 (Serca1/Atp2a1) pre-mRNAs. Clcn1 exon 7a is excluded ˜100% in mRNA from normal adult mice: DM1 mice have an exclusion rate of ˜50% (FIG. 12A).
All experimental procedures, mouse handling, and husbandry were completed in accordance with the Association for Assessment and Accreditation of Laboratory Animal Care. A mouse model for DM1(67). HSALR in line 20b, was used. HSALR mice express human skeletal actin RNA with 250 CUG repeats in the 3′ UTR. Age- and gender-matched HSALR mice were injected intraperitoneally with either 40 mg/kg 2GN8 in water for treatment and 0.9% NaCl for control once per day for 18 days. Mice were sacrificed one day after the last injection, and the vastus muscle was obtained. RNA was extracted from the vastus tissue, and cDNA was synthesized as previously described.

SMILES: N=C(N)Nc1ccc2nc(-c3ccc(-c4nc5ccc(NC(=N)N)cc5[nH]4)cc3)[nH]c2c1 [Compound 2GN8]
- IC50 [1]: 39 ± 4 µM
- enhancement in potency of 2GN8 over precursor compound 27 ([1]; ratio of TR-FRET IC50 values): roughly 14 fold
- effect on abundance of DMPK mRNA [2]: did not have any effect
- Clcn1 pre-mRNA splicing defects [3]: improved to nearly wild type levels
- Serca1 pre-mRNA splicing defects [3]: improved to nearly wild type levels
